The values that follow come from ChEMBL document CHEMBL6092215, “A Prostate-Specific Membrane Antigen-Targeting Small Molecule-Drug Conjugate Strategy to Overcome the Hematological Toxicity of Olaparib” (J Med Chem, 2024).

In data set [1] the test system is LNCaP. Briefly: Antiproliferative activity against human LNCaP cells with high PSMA expression assessed as effect on cell viability incubated for 72 hrs by MTT assay. The data set is classed as functional, cell-based. In general terms: Tetrazolium assays rely on reduction of a dye to a coloured formazan, in cell work by metabolically active cells.
The test system of data set [2] is CWR22R. Briefly: Antiproliferative activity against human 22Rv1 cells with high PSMA expression assessed as effect on cell viability incubated for 72 hrs by MTT assay. Type of data set: functional, cell-based. To be noted: 22Rv1, 72 h.
The subject of data set [3] is PC-3. Briefly: Antiproliferative activity against PSMA negative human PC-3 cells assessed as effect on cell viability incubated for 72 hrs by MTT assay. Type of data set: functional.
Data set [4] can be described thus: Antiproliferative activity against PSMA negative human RWPE-1 cells assessed as effect on cell viability incubated for 72 hrs by MTT assay. The data set is classed as toxicity, cell-based. To be noted: RWPE-1 cells (PSMA negative).

As a reminder, the IC50 is the concentration that gives 50% inhibition. By CC50 is commonly meant the concentration that lowers cell viability or growth by half.

The structures appear in SMILES notation.

`O=C(O)CC[C@H](NC(=O)N[C@@H](CCCCNC(=O)CCCC(=O)N1CCN(C(=O)c2cc(Cc3n[nH]c(=O)c4ccccc34)ccc2F)CC1)C(=O)O)C(=O)O`: the IC50 in data set [1] was 96.6 µM; in data set [2] it was 139 µM. Also, in data set [3], the CC50 is over 1000 µM. In data set [4], the CC50 at 72 h is over 1000 µM.
For `O=C(O)CC[C@H](NC(=O)N[C@@H](CCCCNC(=O)CCC(=O)N[C@@H](Cc1ccccc1)C(=O)N1CCN(C(=O)c2cc(Cc3n[nH]c(=O)c4ccccc34)ccc2F)CC1)C(=O)O)C(=O)O`, the IC50 in data set [1] stood at 152 µM; in data set [2] it was 132 µM. In data set [3], the CC50 is over 1000 µM. In addition, the half-maximal cytotoxic concentration (CC50) at 72 h in data set [4] is over 1000 µM.
In the case of `O=C(O)CC[C@H](NC(=O)N[C@@H](CCCCNC(=O)CCC(=O)NCC(=O)N1CCN(C(=O)c2cc(Cc3n[nH]c(=O)c4ccccc34)ccc2F)CC1)C(=O)O)C(=O)O`, the half-inhibitory concentration (IC50) in data set [1] came out at 147 µM; in data set [2], 126 µM. In addition, the half-maximal cytotoxic concentration (CC50) in data set [3] was over 1000 µM. Moreover, the cytotoxic concentration (CC50) at 72 h in data set [4] was over 1000 µM.
In the case of `NC(=O)NCCC[C@H](NC(=O)CCC(=O)NCCCC[C@H](NC(=O)N[C@@H](CCC(=O)O)C(=O)O)C(=O)O)C(=O)N1CCN(C(=O)c2cc(Cc3n[nH]c(=O)c4ccccc34)ccc2F)CC1`, the IC50 in data set [1] was 242 µM; in data set [2] it was 265 µM. In data set [3], the CC50 is over 1000 µM. Further, the CC50 at 72 h in data set [4] is over 1000 µM.
For `CN(CC(=O)N1CCN(C(=O)c2cc(Cc3n[nH]c(=O)c4ccccc34)ccc2F)CC1)C(=O)CCC(=O)NCCCC[C@H](NC(=O)N[C@@H](CCC(=O)O)C(=O)O)C(=O)O`, the IC50 in data set [1] turned out to be 136 µM; in data set [2], 129 µM. Besides, in data set [3], the CC50 is over 1000 µM. The CC50 at 72 h in data set [4] is over 1000 µM.
As to `O=C(O)CC[C@H](NC(=O)N[C@@H](CCCCNC(=O)CCCCCCC(=O)N1CCN(C(=O)c2cc(Cc3n[nH]c(=O)c4ccccc34)ccc2F)CC1)C(=O)O)C(=O)O`, the figures for the half-inhibitory concentration (IC50) in data set [1] and in data set [2] were 99.9 µM and 137 µM, respectively. In data set [3], the CC50 was over 1000 µM. Moreover, the half-maximal cytotoxic concentration (CC50) at 72 h in data set [4] was over 1000 µM.
For `CC[C@@H](C)[C@H](NC(=O)CCC(=O)NCCCC[C@H](NC(=O)N[C@@H](CCC(=O)O)C(=O)O)C(=O)O)C(=O)N1CCN(C(=O)c2cc(Cc3n[nH]c(=O)c4ccccc34)ccc2F)CC1`, the IC50 in data set [1] came to 135 µM; in data set [2], 126 µM. For the same molecule, the CC50 in data set [3] was over 1000 µM. The 50% cytotoxic concentration (CC50) at 72 h in data set [4] was over 1000 µM.
With `CC(C)[C@@H](NC(=O)CCC(=O)NCCCC[C@H](NC(=O)N[C@@H](CCC(=O)O)C(=O)O)C(=O)O)C(=O)N1CCN(C(=O)c2cc(Cc3n[nH]c(=O)c4ccccc34)ccc2F)CC1`, the half-maximal inhibitory concentration (IC50) in data set [1] amounted to 121 µM; in data set [2] it was 128 µM. Moreover, the CC50 in data set [3] is over 1000 µM. In data set [4], the CC50 at 72 h was over 1000 µM.
Take `CC(C)[C@H](NC(=O)CCC(=O)NCCCC[C@H](NC(=O)N[C@@H](CCC(=O)O)C(=O)O)C(=O)O)C(=O)N1CCN(C(=O)c2cc(Cc3n[nH]c(=O)c4ccccc34)ccc2F)CC1`: the concentration for half-maximal inhibition (IC50) was determined as 111 µM in data set [1] and 122 µM in data set [2]. Further, in data set [3], the CC50 was over 1000 µM. Also, in data set [4], the CC50 at 72 h is over 1000 µM.
As to `CC(C)C[C@H](NC(=O)CCC(=O)NCCCC[C@H](NC(=O)N[C@@H](CCC(=O)O)C(=O)O)C(=O)O)C(=O)N1CCN(C(=O)c2cc(Cc3n[nH]c(=O)c4ccccc34)ccc2F)CC1`, the IC50 in data set [1] was 130 µM; in data set [2], 113 µM. In addition, the CC50 in data set [3] was over 1000 µM. Besides, in data set [4], the CC50 at 72 h was over 1000 µM.
Consider `O=C(O)CC[C@H](NC(=O)N[C@@H](CCCCNC(=O)CCC(=O)N[C@@H](CO)C(=O)N1CCN(C(=O)c2cc(Cc3n[nH]c(=O)c4ccccc34)ccc2F)CC1)C(=O)O)C(=O)O`, for which the values for the IC50 in data set [1] and in data set [2] were 202 µM and 209 µM, respectively. Besides, in data set [3], the 50% cytotoxic concentration (CC50) was over 1000 µM. In addition, the CC50 at 72 h in data set [4] is over 1000 µM.
Consider `O=C(O)CC[C@H](NC(=O)N[C@@H](CCCCNC(=O)CCOC(=O)N1CCN(C(=O)c2cc(Cc3n[nH]c(=O)c4ccccc34)ccc2F)CC1)C(=O)O)C(=O)O`, for which the IC50 was determined as 182 µM in data set [1] and 289 µM in data set [2]. Moreover, the CC50 in data set [3] was over 1000 µM. Also, in data set [4], the CC50 at 72 h is over 1000 µM.
In the case of `O=C(O)CC[C@H](NC(=O)N[C@@H](CCCCNC(=O)CCCNC(=O)N1CCN(C(=O)c2cc(Cc3n[nH]c(=O)c4ccccc34)ccc2F)CC1)C(=O)O)C(=O)O`, the figures for the concentration for half-maximal inhibition (IC50) in data set [1] and in data set [2] were 300 µM and 337 µM, respectively. Besides, the CC50 in data set [3] is over 1000 µM. In data set [4], the cytotoxic concentration (CC50) at 72 h was over 1000 µM.
In the case of `O=C(O)CC[C@H](NC(=O)N[C@@H](CCCCNC(=O)CCSSCCC(=O)N1CCN(C(=O)c2cc(Cc3n[nH]c(=O)c4ccccc34)ccc2F)CC1)C(=O)O)C(=O)O`, the IC50 in data set [1] is 259 µM; in data set [2], 432 µM. For the same molecule, the CC50 in data set [3] is over 1000 µM. The CC50 at 72 h in data set [4] was over 1000 µM.
On to `O=C(O)CC[C@H](NC(=O)N[C@@H](CCCCNC(=O)CCCNC(=O)CCCCCCC(=O)N1CCN(C(=O)c2cc(Cc3n[nH]c(=O)c4ccccc34)ccc2F)CC1)C(=O)O)C(=O)O`, for which the IC50 in data set [1] is 238 µM; in data set [2], 208 µM. The CC50 in data set [3] is over 1000 µM. Further, in data set [4], the CC50 at 72 h was over 1000 µM.
On to `CSCC[C@H](NC(=O)CCC(=O)NCCCC[C@H](NC(=O)N[C@@H](CCC(=O)O)C(=O)O)C(=O)O)C(=O)N1CCN(C(=O)c2cc(Cc3n[nH]c(=O)c4ccccc34)ccc2F)CC1`, for which the results for the IC50 in data set [1] and in data set [2] were 190 µM and 175 µM, respectively. Moreover, in data set [3], the CC50 is over 1000 µM. The CC50 at 72 h in data set [4] is over 1000 µM.
In the case of `O=C(O)CC[C@H](NC(=O)N[C@@H](CCCCNC(=O)N1CCN(C(=O)c2cc(Cc3n[nH]c(=O)c4ccccc34)ccc2F)CC1)C(=O)O)C(=O)O`, the concentration for half-maximal inhibition (IC50) in data set [1] came out at 251 µM; in data set [2] it was 314 µM. Also, in data set [3], the CC50 was over 1000 µM. The half-maximal cytotoxic concentration (CC50) at 72 h in data set [4] was over 1000 µM.
On to `O=C(O)CC[C@H](NC(=O)N[C@@H](CCCCNC(=O)CCNC(=O)N1CCN(C(=O)c2cc(Cc3n[nH]c(=O)c4ccccc34)ccc2F)CC1)C(=O)O)C(=O)O`, for which the IC50 in data set [1] amounted to 273 µM; in data set [2], 327 µM. Also, the CC50 in data set [3] is over 1000 µM. Also, the CC50 at 72 h in data set [4] was over 1000 µM.
Take `O=C(O)CC[C@H](NC(=O)N[C@@H](CCCCNC(=O)CCC(=O)NCCCC(=O)N1CCN(C(=O)c2cc(Cc3n[nH]c(=O)c4ccccc34)ccc2F)CC1)C(=O)O)C(=O)O`: the results for the IC50 in data set [1] and in data set [2] were 162 µM and 134 µM, respectively. Further, the half-maximal cytotoxic concentration (CC50) in data set [3] was over 1000 µM. Also, the 50% cytotoxic concentration (CC50) at 72 h in data set [4] was over 1000 µM.
Regarding `C[C@H](NC(=O)CCC(=O)NCCCC[C@H](NC(=O)N[C@@H](CCC(=O)O)C(=O)O)C(=O)O)C(=O)N1CCN(C(=O)c2cc(Cc3n[nH]c(=O)c4ccccc34)ccc2F)CC1`, the concentration for half-maximal inhibition (IC50) was found to be 129 µM in data set [1] and 133 µM in data set [2]. Further, in data set [3], the CC50 was over 1000 µM. Further, the CC50 at 72 h in data set [4] is over 1000 µM.
In the case of `O=C(O)CC[C@H](NC(=O)N[C@@H](CCCCNC(=O)c1cc(Cc2n[nH]c(=O)c3ccccc23)ccc1F)C(=O)O)C(=O)O`, the values for the 50% inhibitory concentration (IC50) in data set [1] and in data set [2] were 283 µM and 455 µM, respectively. Further, in data set [3], the cytotoxic concentration (CC50) was over 1000 µM. Moreover, the CC50 at 72 h in data set [4] was over 1000 µM.
For the molecule `O=C(O)CC[C@H](NC(=O)N[C@@H](CCCCNC(=O)CCC(=O)N[C@@H](C(=O)N1CCN(C(=O)c2cc(Cc3n[nH]c(=O)c4ccccc34)ccc2F)CC1)c1ccccc1)C(=O)O)C(=O)O`, the IC50 in data set [1] is 173 µM; in data set [2], 162 µM. Further, the CC50 in data set [3] was over 1000 µM. Also, the CC50 at 72 h in data set [4] was over 1000 µM.
